Measurements from patent publication US9951064B2, “Azaindazole compounds as inhibitors of T790M containing EGFR mutants” (Genentech, Inc., priority 2013, dated 2018).
Like-named read-outs stand apart in the source and are kept apart here.

Key:
[1] = target: T1, phosphor-EGFR in H1975(L585R/T790M) mutant EGFR expressing cells (Homo sapiens, UniProt P00533, L858R/T790M); test: H1975 pEGFR MSD cellular assay; format: cell-based; conditions: NCI-H1975 cells, serum starved, 1 hour compound incubation, pEGFR Tyr1068 MSD; read-out: HI975 pEGFR EC50
T1 construct: host or cells: NCI-H1975
T1 sequence (P00533 25-1210 T790M/L858R): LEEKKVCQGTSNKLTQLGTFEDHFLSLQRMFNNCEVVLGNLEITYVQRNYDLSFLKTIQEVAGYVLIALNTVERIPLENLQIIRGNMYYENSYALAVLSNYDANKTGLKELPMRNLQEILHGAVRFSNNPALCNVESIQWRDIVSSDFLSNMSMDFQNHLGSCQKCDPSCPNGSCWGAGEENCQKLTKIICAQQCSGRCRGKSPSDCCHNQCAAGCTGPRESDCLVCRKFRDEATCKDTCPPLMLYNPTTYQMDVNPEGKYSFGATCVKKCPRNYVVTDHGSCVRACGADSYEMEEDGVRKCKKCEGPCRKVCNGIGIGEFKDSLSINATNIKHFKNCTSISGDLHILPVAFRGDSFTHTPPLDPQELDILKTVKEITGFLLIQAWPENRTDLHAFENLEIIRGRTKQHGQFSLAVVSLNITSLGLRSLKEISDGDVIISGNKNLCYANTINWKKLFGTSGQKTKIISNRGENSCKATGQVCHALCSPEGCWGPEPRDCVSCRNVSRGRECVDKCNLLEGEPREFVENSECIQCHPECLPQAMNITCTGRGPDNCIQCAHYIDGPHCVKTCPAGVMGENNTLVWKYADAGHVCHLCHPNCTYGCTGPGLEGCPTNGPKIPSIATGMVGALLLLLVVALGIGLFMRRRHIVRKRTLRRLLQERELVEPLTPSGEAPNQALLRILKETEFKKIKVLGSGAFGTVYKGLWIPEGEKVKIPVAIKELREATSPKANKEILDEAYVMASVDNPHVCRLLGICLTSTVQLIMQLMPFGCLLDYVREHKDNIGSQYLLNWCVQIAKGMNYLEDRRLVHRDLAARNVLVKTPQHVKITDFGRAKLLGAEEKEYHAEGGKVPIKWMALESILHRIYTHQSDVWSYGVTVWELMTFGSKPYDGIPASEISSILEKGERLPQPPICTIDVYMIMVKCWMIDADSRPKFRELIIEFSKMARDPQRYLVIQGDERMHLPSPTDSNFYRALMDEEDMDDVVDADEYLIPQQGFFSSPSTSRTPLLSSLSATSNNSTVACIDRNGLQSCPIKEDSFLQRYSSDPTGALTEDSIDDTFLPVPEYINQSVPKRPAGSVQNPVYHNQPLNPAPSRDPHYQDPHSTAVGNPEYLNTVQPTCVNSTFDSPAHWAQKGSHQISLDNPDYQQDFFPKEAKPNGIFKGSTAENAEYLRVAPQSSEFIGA
Method: H1975 pEGFR MSD Cellular Assays
These assays are intended for determining cellular. […] (Meso Scale Discovery Catalog# N31CB-1).
NCI-H1975 (ATCC Catalog# CRL-5908) cells are maintained in medium containing RPMI 1640, 10% FBS, 4 mM L-Glutamine, 1% Penicillin-Streptomycin, and 4.5 g/L Glucose. All cell culture reagents were purchased from Invitrogen/Gibco. Cells are cultured at 37° C. at 5% CO2 and split as recommended by ATCC.
Cell Plating and Serum Starvation:
H1975 cells are harvested and plated into sterile cell culture treated 384 well plates (Greiner catalog #781091) at a density of 30,000 cells/well in 50 ul culture medium and placed in a 37° C. at 5% CO2 incubator for six hours. After six hours, culture medium is aspirated and replaced with serum-free culture medium. Cells are then incubated with the serum-free medium overnight at 37° C. and 5% CO2.
The following day, test compounds are serially diluted in dimethyl sulfoxide (DMSO) and added to cells in serum free medium (final DMSO concentration 0.5%). Assay plates are then incubated for 1 hour at 37° C. and 5% CO2. Following 1 hour of compound incubation cells are then lysed and processed as per the MSD pEGFR assay kit protocol. Cell lysates are added to assay plates pre-coated with antibodies against phosphorylated EGFR. Phosphorylated EGFR in samples are allowed to bind to the capture antibodies overnight at 4° C. The detection antibody (anti-total EGFR, labeled with an electrochemiluminescent SULFO-TAG) is added to the bound lysate and incubated for 1 hour at room temperature. The MSD Read Buffer is added such that when a voltage is applied to the plate electrodes, the labels bound to the electrode surface emit light. The MSD Sector Instrument measures the intensity of the light, and quantitatively measures the amount of phosphorylated-EGFR in the sample. Percent inhibition of EGFR phosphorylation by varying concentrations of test compounds is calculated relative to untreated controls. EC50 values are calculated using the 4 parameter logistic nonlinear regression dose-response model.

[2] = target: T2, EGFR T790M L858R (Homo sapiens, UniProt P00533, L858R/T790M); test: EGFR T790M L858R biochemical assay (Caliper mobility shift); conditions: 5 μM ATP; apparent Ki (Morrison fit) converted by Cheng-Prusoff, Km of ATP 1.3 μM
T2 construct: purchased Life Technologies PV4879
T2 sequence (P00533 25-1210 T790M/L858R): as above
Method: The exemplified compounds described herein were tested according to the assay below. The enzyme data reported in Tables 4-5 is generally a representative of multiple experiments.
Reactions proceed for 30 minutes at room temperature (22° C.) and are terminated with 80 mM 2,2′,2″,2′″-(ethane-1,2-diyldinitrilo)tetraacetic acid (EDTA). Product is detected using the Caliper mobility shift detection method where product and substrate are electrophoretically separated and measured.

[3] = system: H1975 (EGFR T790M/L858R) cell proliferation; test: H1975 proliferation assay (Cell Titer-Glo); format: cell-based; conditions: NCI-H1975 cells, 72 hour incubation
Method: H1975 Proliferation Assays
All cell culture reagents were purchased from Invitrogen/Gibco. Cells are cultured at 37° C. at 5% CO2 and split as recommended by ATCC.

[4] = Homo sapiens, NCI-H1975, 72 h, read-out: H1975 antiproliferative EC50

Structure (SMILES)	EC50 [1] [µM]	Ki [2] [µM]	EC50 [3, 4] [µM]	EC50 ([3]; listed as 13, enantiomer 2, read-out: H1975 antiproliferative EC50) [µM]	EC50 ([3]; listed as 27, enantiomer 2, read-out: H1975 antiproliferative EC50) [µM]
CCC(C)n1nc(N2CC(C(C)(C)O)C2)c2cnc(Nc3ccnc(N4CCC(O)C(C)(C)C4)n3)cc21 (mixture of isomers) [Example 12, 1-(4-((1-(sec-Butyl)-3-(3-(2-hydroxypropan-2-yl)azetidin-1-yl)-1H-pyrazolo[4,3-c]pyridin-6-yl)amino)pyrimidin-2-yl)-3,3-dimethylpiperidin-4-ol]	0.0302	0.0022	0.288		
CCC(C)n1nc(N2CC3(COC3)C2)c2cnc(Nc3ccnc(-c4cnn(S(=O)(=O)C5CC5)c4)n3)cc21 (racemic) [Example 14, 1-(sec-Butyl)-N-(2-(1-(cyclopropylsulfonyl)-1H-pyrazol-4-yl)pyrimidin-4-yl)-3-(2-oxa-6-azaspiro[3.3]heptan-6-yl)-1H-pyrazolo[4,3-c]pyridin-6-amine]	0.0193	0.001	0.216		
CC(C)n1nc(N2CCOCC2)c2cnc(Nc3ccnc(N4CCC(O)C(F)C4)n3)cc21 (racemic) [Example 20, (±)-cis-3-Fluoro-1-[4-(1-isopropyl-3-morpholin-4-yl-1H-pyrazolo[4,3-c]pyridin-6-ylamino)pyrimidin-2-yl]piperidin-4-ol]	0.135	0.0025	1.07		
CCC(C)n1nc(N2CCNC2=O)c2cnc(Nc3ccnc(N4CC[C@@H](OC)[C@@H](F)C4)n3)cc21 (mixture of isomers) [Example 26, (±)-1-(1-(sec-Butyl)-6-((2-(cis-3-fluoro-4-methoxypiperidin-1-yl)pyrimidin-4-yl)amino)-1H-pyrazolo[4,3-c]pyridin-3-yl)imidazolidin-2-one]	0.0144	0.0006	0.108		
CCC(C)n1nc(N2CC(C(C)(C)O)C2)c2cnc(Nc3ccnc(-c4cnn(S(=O)(=O)C5CC5)c4)n3)cc21 (single isomer, unassigned) [Example 13, enantiomer 1, 2-(1-(1-(sec-Butyl)-6-((2-(1-(cyclopropylsulfonyl)-1H-pyrazol-4-yl)pyrimidin-4-yl)amino)-1H-pyrazolo[4,3-c]pyridin-3-yl)azetidin-3-yl)propan-2-ol]			0.361		
CCC(C)n1nc(N2CC(C(C)(C)O)C2)c2cnc(Nc3ccnc(-c4cnn(S(=O)(=O)C5CC5)c4)n3)cc21 (single isomer, unassigned) [Example 13, enantiomer 2, 2-(1-(1-(sec-Butyl)-6-((2-(1-(cyclopropylsulfonyl)-1H-pyrazol-4-yl)pyrimidin-4-yl)amino)-1H-pyrazolo[4,3-c]pyridin-3-yl)azetidin-3-yl)propan-2-ol]				0.633	
CCC(C)n1nc(N2CCOCC2)c2cnc(Nc3ccnc(-c4cnn(S(=O)(=O)C5CC5)c4)n3)cc21 (single isomer, unassigned) [Example 27, enantiomer 1, 1-(sec-Butyl)-N-(2-(1-(cyclopropylsulfonyl)-1H-pyrazol-4-yl)pyrimidin-4-yl)-3-morpholino-1H-pyrazolo[4,3-c]pyridin-6-amine]			0.61		
CCC(C)n1nc(N2CCOCC2)c2cnc(Nc3ccnc(-c4cnn(S(=O)(=O)C5CC5)c4)n3)cc21 (single isomer, unassigned) [Example 27, enantiomer 2, 1-(sec-Butyl)-N-(2-(1-(cyclopropylsulfonyl)-1H-pyrazol-4-yl)pyrimidin-4-yl)-3-morpholino-1H-pyrazolo[4,3-c]pyridin-6-amine]					1.14
CC(C)n1nc(F)c2cnc(Nc3ccnc(-c4cnn(S(=O)(=O)C5CC5)c4)n3)cc21 [Example 7, N-(2-(1-(Cyclopropylsulfonyl)-1H-pyrazol-4-yl)pyrimidin-4-yl)-3-fluoro-1-isopropyl-1H-pyrazolo[4,3-c]pyridin-6-amine]		0.298	> 10		
COC1CCN(c2nccc(Nc3cc4c(cn3)c(C(N)=O)nn4C(C)C)n2)CC1 [Example 11, 1-Isopropyl-6-((2-(4-methoxypiperidin-1-yl)pyrimidin-4-yl)amino)-1H-pyrazolo[4,3-c]pyridine-3-carboxamide]		0.0291			
CCC(C)n1nc(N2CC(N)C(F)(F)C2)c2cnc(Nc3ccnc(N4CCC(C)(O)CC4)n3)cc21 (stereo not drawn) [Example 184, 1-(4-(3-(4-Amino-3,3-difluoropyrrolidin-1-yl)-1-sec-butyl-1H-pyrazolo[4,3-c]pyridin-6-ylamino)pyrimidin-2-yl)-4-methylpiperidin-4-ol]	0.0949		0.761		
CCC(C)n1nc(N2CC[C@H](O)C2=O)c2cnc(Nc3ccnc(-c4cnn(S(=O)(=O)C5CC5)c4)n3)cc21 (stereo partly drawn) [Example 185, (3S)-(1-sec-Butyl-6-(2-(1-(cyclopropylsulfonyl)-1H-pyrazol-4-yl)pyrimidin-4-ylamino)-1H-pyrazolo[4,3-c]pyridin-3-yl)-3-hydroxypyrrolidin-2-one]	0.0856		0.696		
CCC(C)n1nc(N2CC[C@@H](O)C2=O)c2cnc(Nc3ccnc(-c4cnn(S(=O)(=O)C5CC5)c4)n3)cc21 (stereo partly drawn) [Example 186, (3R)-1-(1-sec-Butyl-6-(2-(1-(cyclopropylsulfonyl)-1H-pyrazol-4-yl)pyrimidin-4-ylamino)-1H-pyrazolo[4,3-c]pyridin-3-yl)-3-hydroxypyrrolidin-2-one]	0.0749		0.586		
CCC(C)n1nc(N2CCN(C(=O)[C@H](C)O)CC2)c2cnc(Nc3ccnc(-c4cnn(S(=O)(=O)C5CC5)c4)n3)cc21 (stereo partly drawn) [Example 187, (2S)-1-(4-(1-sec-Butyl-6-(2-(1-(cyclopropylsulfonyl)-1H-pyrazol-4-yl)pyrimidin-4-ylamino)-1H-pyrazolo[4,3-c]pyridin-3-yl)piperazin-1-yl)-2-hydroxypropan-1-one]	0.0755		0.813		
CCC(C)n1nc(N2CCN(C(=O)[C@@H](C)O)CC2)c2cnc(Nc3ccnc(-c4cnn(S(=O)(=O)C5CC5)c4)n3)cc21 (stereo partly drawn) [Example 188, (2R)-1-(4-(1-sec-Butyl-6-(2-(1-(cyclopropylsulfonyl)-1H-pyrazol-4-yl)pyrimidin-4-ylamino)-1H-pyrazolo[4,3-c]pyridin-3-yl)piperazin-1-yl)-2-hydroxypropan-1-one]	0.0643		1.09		
CCC(C)n1nc(N2C[C@@H](CO)NC2=O)c2cnc(Nc3ccnc(-c4cnn(S(=O)(=O)C5CC5)c4)n3)cc21 (stereo partly drawn) [Example 189, (4S)-1-(1-sec-Butyl-6-(2-(1-(cyclopropylsulfonyl)-1H-pyrazol-4-yl)pyrimidin-4-ylamino)-1H-pyrazolo[4,3-c]pyridin-3-yl)-4-(hydroxymethyl)imidazolidin-2-one]	0.474		5.59		
CCC(C)n1nc(N2CC(C(C)O)C2)c2cnc(Nc3ccnc(-c4cnn(S(=O)(=O)C5CC5)c4)n3)cc21 (stereo not drawn) [Example 190, 1-(1-(1-sec-Butyl-6-(2-(1-(cyclopropylsulfonyl)-1H-pyrazol-4-yl)pyrimidin-4-ylamino)-1H-pyrazolo[4,3-c]pyridin-3-yl)azetidin-3-yl)ethanol]	0.0446		0.537		
CC(C)n1nc(N2C[C@@H](O)[C@@H](O)C2)c2cnc(Nc3ccnc(N4CCC(C)(O)CC4)n3)cc21 [Example 191, (±)-1-(6-(2-(4-Hydroxy-4-methylpiperidin-1-yl)pyrimidin-4-ylamino)-1-isopropyl-1H-pyrazolo[4,3-c]pyridin-3-yl)pyrrolidine-cis-3,4-diol]	0.531		> 10		
CC(C)n1nc(N2C[C@H](O)[C@@H](O)C2)c2cnc(Nc3ccnc(N4CCC(C)(O)CC4)n3)cc21 [Example 192, (3S,4S)-1-(6-(2-(4-Hydroxy-4-methylpiperidin-1-yl)pyrimidin-4-ylamino)-1-isopropyl-1H-pyrazolo[4,3-c]pyridin-3-yl)pyrrolidine-3,4-diol]			> 10		
